Results: ChEMBL document CHEMBL3576789, “Origins of the Quinolone Class of Antibacterials: An Expanded "Discovery Story"” (2015)
In brackets after ≈: the same amount, converted by molar mass.

Tests used:
Staphylococcus aureus [1] = assay: Antimicrobial activity against Staphylococcus aureus 209P; type: functional
Klebsiella pneumoniae [2] = assay: Antimicrobial activity against Klebsiella pneumoniae 602; type: functional
Proteus vulgaris = assay: Antimicrobial activity against Proteus vulgaris HX19; type: functional
Klebsiella pneumoniae [3] = assay: Antimicrobial activity against Klebsiella pneumoniae PCI602; type: functional
Staphylococcus aureus [4] = assay: Antimicrobial activity against Staphylococcus aureus 209p JC1; type: functional
Escherichia coli [5] = assay: Antimicrobial activity against Escherichia coli NIHJ; type: functional
Proteus mirabilis = assay: Antimicrobial activity against Proteus mirabilis GN2425; type: functional
Pseudomonas aeruginosa [6] = assay: Antimicrobial activity against Pseudomonas aeruginosa 104; type: functional
Pseudomonas aeruginosa [7] = assay: Antimicrobial activity against Pseudomonas aeruginosa TU408; type: functional
Escherichia coli [8] = assay: Antimicrobial activity against Escherichia coli NIHJ JC2; type: functional
Salmonella typhi = assay: Antimicrobial activity against Salmonella typhi T58; type: functional, Salmonella enterica subsp. enterica serovar Typhi; settings: Salmonella enterica

CCn1cc(C(=O)O)c(=O)c2ccc(C)cc21
MIC (Staphylococcus aureus [1]): 200 µg/mL (≈ 865 µM)
MIC (Klebsiella pneumoniae [2]): 25 µg/mL (≈ 108 µM)
MIC (Proteus vulgaris): 12.5 µg/mL (≈ 54.1 µM)
MIC (Klebsiella pneumoniae [3]): 6.25 µg/mL (≈ 27 µM)
MIC (Staphylococcus aureus [4]): > 50 µg/mL
MIC (Escherichia coli [5]): 6.25 µg/mL (≈ 27 µM)
MIC (Proteus mirabilis): 12.5 µg/mL (≈ 54.1 µM)
MIC (Pseudomonas aeruginosa [6]): > 200 µg/mL
MIC (Pseudomonas aeruginosa [7]): > 50 µg/mL
MIC (Escherichia coli [8]): 6.25 µg/mL (≈ 27 µM)
MIC (Salmonella typhi): 12.5 µg/mL (≈ 54.1 µM)

CCn1cc(C(=O)O)c(=O)c2ccc(Cl)cc21
MIC (Staphylococcus aureus [1]): 50 µg/mL (≈ 199 µM)
MIC (Klebsiella pneumoniae [2]): 25 µg/mL (≈ 99.3 µM)
MIC (Proteus vulgaris): 25 µg/mL (≈ 99.3 µM)
MIC (Escherichia coli [5]): 25 µg/mL (≈ 99.3 µM)
MIC (Proteus mirabilis): 12.5 µg/mL (≈ 49.7 µM)
MIC (Pseudomonas aeruginosa [6]): 200 µg/mL (≈ 795 µM)

CCn1cc(C(=O)O)c(=O)c2ccc(C)nc21 [NALIDIXIC ACID]
MIC (Staphylococcus aureus [1]): 100 µg/mL (≈ 431 µM)
MIC (Klebsiella pneumoniae [2]): 6.25 µg/mL (≈ 26.9 µM)
MIC (Proteus vulgaris): 1.56 µg/mL (≈ 6.72 µM)
MIC (Klebsiella pneumoniae [3]): 6.25 µg/mL (≈ 26.9 µM)
MIC (Staphylococcus aureus [4]): > 50 µg/mL
MIC (Escherichia coli [5]): 3.13 µg/mL (≈ 13.5 µM)
MIC (Proteus mirabilis): 12.5 µg/mL (≈ 53.8 µM)
MIC (Pseudomonas aeruginosa [6]): 200 µg/mL (≈ 861 µM)
MIC (Pseudomonas aeruginosa [7]): > 50 µg/mL
MIC (Escherichia coli [8]): 6.25 µg/mL (≈ 26.9 µM)
MIC (Salmonella typhi): 6.25 µg/mL (≈ 26.9 µM)
